Data reported in paper PMC11597353, “Synthesis of Novel Gefitinib-Conjugated 1,2,3-Triazole Derivatives and Their Effect of Inducing DNA Damage and Apoptosis in Tumor Cells” (Molecules, 2024).
Read-outs that look alike come from different tables or passages of the source.

How the values were obtained:
VEGFR-2 = test system: VEGFR-2; parameters: method as in PMID 37611529; settings: cited from earlier work
EGFR T790M = test system: EGFR T790M; parameters: method as in PMID 37611529; settings: cited from earlier work
HepG2 cells [1] = test system: HepG2 cells; parameters: method as in PMID 32745759; settings: read-out: IC50, growth of HepG2 cells; cited from earlier work
HepG2 cells [2] = assay: CCK8 cell viability / IC50 assay on HepG2 cells; settings: for % Cell Viability (10 μM): 72 h; for IC50: read-out: HepG2, IC50 (μM) 72 h
MOLT-4 = test system: MOLT-4; parameters: method as in PMID 31078767; settings: MOLT-4, MTT method; cited from earlier work
HT-29 = test system: HT-29; parameters: method as in PMID 31078767; settings: HT-29, MTT method; cited from earlier work
MCF-7 = test system: MCF-7; parameters: method as in PMID 31078767; settings: MCF-7, MTT method; cited from earlier work
[3] = test system: breast cancer cells (MDA-MB-468); parameters: method as in PMID 31586710; settings: 2.5 μM; cited from earlier work
HepG2 cells [4] = test system: HepG2 cells; parameters: method as in PMID 34237623, PMID 38675717; settings: read-out: IC50, inhibitory activity against HepG2 cells; cited from earlier work

Row | melting point [°C] | IC50 (HepG2 cells [2]) [µM] | SMILES | % Cell Viability (10 μM) (HepG2 cells [2]) [%] | other results
1 | 164 to 166 | 6.68 ± 0.11 | COc1cc2ncnc(Nc3cccc(-c4cn(Cc5cc(F)ccc5C#N)nn4)c3)c2cc1OCCCN1CCOCC1 [Compound 11r, 4-fluoro-2-((4-(3-((7-methoxy-6-(3-morpholinopropoxy)quinazolin-4-yl)amino)phenyl)-1H-1,2,3-triazol-1-yl)methyl)benzonitrile] | 9.11 ± 1.63 | 
2 | 172 to 173 | 5.38 ± 0.57 | COc1cc2ncnc(Nc3cccc(-c4cn(Cc5cc(C)cc(C)c5)nn4)c3)c2cc1OCCCN1CCOCC1 [Compound 11q, N-(3-(1-(3,5-dimethylbenzyl)-1H-1,2,3-triazol-4-yl)phenyl)-7-methoxy-6-(3-morpholinopropoxy)quinazolin-4-amine] | 7.14 ± 0.95 | 
3 | 165 to 167 | 5.14 ± 0.25 | COc1cc2ncnc(Nc3cccc(-c4cn(Cc5ccc(Cl)cc5)nn4)c3)c2cc1OCCCN1CCOCC1 [Compound 11o, N-(3-(1-(4-chlorobenzyl)-1H-1,2,3-triazol-4-yl)phenyl)-7-methoxy-6-(3-morpholinopropoxy)quinazolin-4-amine] | 8.06 ± 0.88 | 
4 | 167 to 170 |  | COc1cc(Cn2cc(-c3cccc(Nc4ncnc5cc(OC)c(OCCCN6CCOCC6)cc45)c3)nn2)cc(OC)c1 [Compound 11s, N-(3-(1-(3,5-dimethoxybenzyl)-1H-1,2,3-triazol-4-yl)phenyl)-7-methoxy-6-(3-morpholinopropoxy)quinazolin-4-amine] | 22.89 ± 1.97 | 
5 | 169 to 170 | 5.15 ± 0.31 | COc1cc2ncnc(Nc3cccc(-c4cn(Cc5ccc(Br)cc5F)nn4)c3)c2cc1OCCCN1CCOCC1 [Compound 11f, N-(3-(1-(4-bromo-2-fluorobenzyl)-1H-1,2,3-triazol-4-yl)phenyl)-7-methoxy-6-(3-morpholinopropoxy)quinazolin-4-amine] | 5.72 ± 0.40 | 
6 | 164 to 165 | 6.1 ± 0.06 | COc1cc2ncnc(Nc3cccc(-c4cn(Cc5cccc(Cl)c5)nn4)c3)c2cc1OCCCN1CCOCC1 [Compound 11n, N-(3-(1-(3-chlorobenzyl)-1H-1,2,3-triazol-4-yl)phenyl)-7-methoxy-6-(3-morpholinopropoxy)quinazolin-4-amine] | 7.68 ± 0.34 | 
7 | 169 to 171 | 10.1 ± 0.14 | COc1cc2ncnc(Nc3cccc(-c4cn(Cc5ccccc5C)nn4)c3)c2cc1OCCCN1CCOCC1 [Compound 11p, 7-methoxy-N-(3-(1-(2-methylbenzyl)-1H-1,2,3-triazol-4-yl)phenyl)-6-(3-morpholinopropoxy)quinazolin-4-amine] | 17.36 ± 1.24 | 
8 | 184 to 186 | 6.21 ± 0.24 | COc1cc2ncnc(Nc3cccc(-c4cn(Cc5ccccc5F)nn4)c3)c2cc1OCCCN1CCOCC1 [Compound 11k, N-(3-(1-(2-fluorobenzyl)-1H-1,2,3-triazol-4-yl)phenyl)-7-methoxy-6-(3-morpholinopropoxy)quinazolin-4-amine] | 14.72 ± 2.29 | 
9 | 177 to 180 | 3.91 ± 0.08 | COc1cc2ncnc(Nc3cccc(-c4cn(Cc5c(F)cccc5Cl)nn4)c3)c2cc1OCCCN1CCOCC1 [Compound 11h, N-(3-(1-(2-chloro-6-fluorobenzyl)-1H-1,2,3-triazol-4-yl)phenyl)-7-methoxy-6-(3-morpholinopropoxy)quinazolin-4-amine] | 6.80 ± 0.14 | 
10 | 179 to 181 | 5.23 ± 0.2 | COc1cc2ncnc(Nc3cccc(-c4cn(Cc5ccc(F)c(Cl)c5)nn4)c3)c2cc1OCCCN1CCOCC1 [Compound 11g, N-(3-(1-(3-chloro-4-fluorobenzyl)-1H-1,2,3-triazol-4-yl)phenyl)-7-methoxy-6-(3-morpholinopropoxy)quinazolin-4-amine] | 6.50 ± 0.88 | 
11 |  | 4.53 ± 0.37 | COc1cc2ncnc(Nc3cccc(-c4cn(Cc5ccc(C(F)(F)F)cc5)nn4)c3)c2cc1OCCCN1CCOCC1 [Compound 11l, 7-methoxy-6-(3-morpholinopropoxy)-N-(3-(1-(4-(trifluoromethyl)benzyl)-1H-1,2,3-triazol-4-yl)phenyl)quinazolin-4-amine] | 5.85 ± 1.15 | 
12 | 171 to 173 |  | COc1cc2ncnc(Nc3cccc(-c4cn(Cc5ccc([N+](=O)[O-])cc5)nn4)c3)c2cc1OCCCN1CCOCC1 [Compound 11j, 7-methoxy-6-(3-morpholinopropoxy)-N-(3-(1-(4-nitrobenzyl)-1H-1,2,3-triazol-4-yl)phenyl)quinazolin-4-amine] | 47.33 ± 2.17 | 

The remaining lines, values behind:

Row | SMILES | melting point [°C] | IC50 (HepG2 cells [2]) [µM] | % Cell Viability (10 μM) (HepG2 cells [2]) [%] | other results
13 | NS(=O)(=O)c1ccc(-n2c(SCC(=O)Nc3cccc4ccccc34)nc3ccc(I)cc3c2=O)cc1 [Compound 7] |  |  |  | IC50 (VEGFR-2): 0.0523 µM; IC50 (EGFR T790M): 0.0728 µM
14 | Cc1cc(C)nc(NS(=O)(=O)c2ccc(-n3cc(CCc4nc5ccccc5s4)nn3)cc2)n1 [Compound 4] |  |  |  | IC50 (HepG2 cells [1]): 1.49 µM
15 | O=C1C=C(NCc2cn(Cc3ccc(C(F)(F)F)cc3)nn2)C(=O)c2ccccc21 [Compound 2] |  |  |  | IC50 (MOLT-4): 8.4 µM; IC50 (HT-29): 6.8 µM; IC50 (MCF-7): 10.4 µM
16 | COc1cc2ncnc(Nc3ccc(F)c(Cl)c3)c2cc1OCCCN1CCOCC1 [Gefitinib] |  |  | 31.03 ± 2.42 | 
17 | COc1cc2ncnc(Nc3cccc(-c4cn(Cc5cc(Br)cc(Br)c5)nn4)c3)c2cc1OCCCN1CCOCC1 [Compound 11c, N-(3-(1-(3,5-dibromobenzyl)-1H-1,2,3-triazol-4-yl)phenyl)-7-methoxy-6-(3-morpholinopropoxy)quinazolin-4-amine] |  |  | 37.72 ± 2.38 | 
18 | O=C(C1=Cc2cc3ccccc3n2Cc2cnnn21)c1ccccc1 [Compound 3] |  |  |  | colony formation in breast cancer cells (MDA-MB-468) [3]: completely inhibited
19 | COc1cc2ncnc(Nc3cccc(-c4cn(Cc5ccccc5C#N)nn4)c3)c2cc1OCCCN1CCOCC1 [Compound 11b, 2-((4-(3-((7-methoxy-6-(3-morpholinopropoxy)quinazolin-4-yl)amino)phenyl)-1H-1,2,3-triazol-1-yl)methyl)benzonitrile] | 167 to 168 |  | 59.50 ± 2.74 | 
20 | COc1cc2ncnc(Nc3cccc(-c4cn(Cc5ccc(C)cc5)nn4)c3)c2cc1OCCCN1CCOCC1 [Compound 11d, 7-methoxy-N-(3-(1-(4-methylbenzyl)-1H-1,2,3-triazol-4-yl)phenyl)-6-(3-morpholinopropoxy)quinazolin-4-amine] | 168 to 169 |  | 36.48 ± 2.89 | 
21 | COc1cc(C(=O)c2nc3ccccc3c(=O)[nH]2)cc(OC)c1OC [Compound 8] |  |  |  | IC50 (HepG2 cells [4]): 1.22 µM
22 | COc1cc2ncnc(Nc3cccc(-c4cn(Cc5ccc(Br)cc5)nn4)c3)c2cc1OCCCN1CCOCC1 [Compound 11a, N-(3-(1-(4-bromobenzyl)-1H-1,2,3-triazol-4-yl)phenyl)-7-methoxy-6-(3-morpholinopropoxy)quinazolin-4-amine] | 177 to 178 | 5.49 ± 0.21 | 7.07 ± 0.49 | 
23 | COc1cc2ncnc(Nc3cccc(-c4cn(Cc5ccccc5[N+](=O)[O-])nn4)c3)c2cc1OCCCN1CCOCC1 [Compound 11i, 7-methoxy-6-(3-morpholinopropoxy)-N-(3-(1-(2-nitrobenzyl)-1H-1,2,3-triazol-4-yl)phenyl)quinazolin-4-amine] |  |  | 70.10 ± 3.40 | 
24 | COc1cc2ncnc(Nc3cccc(-c4cn(Cc5cc(F)ccc5Br)nn4)c3)c2cc1OCCCN1CCOCC1 [Compound 11e, N-(3-(1-(2-bromo-5-fluorobenzyl)-1H-1,2,3-triazol-4-yl)phenyl)-7-methoxy-6-(3-morpholinopropoxy)quinazolin-4-amine] |  | 4.04 ± 0.21 | 7.03 ± 0.16 | 
